Laboratory results published in a melting point compilation (Tetko et al.; mined from patent text by program, amines drawn as free bases though some values may be those of a salt).

Compared with `CSc1ccc(-c2ccc(C(=O)Nc3ccc4cc(CN5CCCC5)cnc4c3C)c(F)c2)cc1`, `CC1(C)CCC(C)(C)c2cc(-c3cc(CO)cc(-c4ccc(C(=O)O)cc4)c3)ccc21` is higher in melting point: 189 to 190 °C for the first, 213 °C for the second.

First: CN(NC1=CC(=O)NCC1)c1ccccc1
Second: CN(Cc1ccccc1)c1cc(C#N)ccc1C1NC(=O)NC1=O (centres undefined)
The melting point of the first is higher: 180 to 182 °C for the first, 95 to 98 °C for the second.

First: CON=C(Cn1ncc(-c2ccc(S(C)(=O)=O)cc2)c(-c2ccc(F)cc2)c1=O)c1ccccc1
Second: COc1ccc(N2CCN(c3ccc(F)cc3)CC2)c(-c2ccc(N(C)C)cc2)n1
The melting point of the first is lower: 95 to 99 °C for the first, 168 to 169 °C for the second.

Compared with `CC(=O)On1c(C(F)(F)F)nc2ncc(Cl)cc21`, `CCOC(=O)c1cc(C#N)cc(C(F)(F)F)n1` is lower in melting point: 103 °C for the first, 71.5 °C for the second.

First: N#CCOC(=O)c1cc2ccccc2o1
Second: Cc1oc(-c2ccccc2)nc1CCOS(C)(=O)=O
The melting point of the first is lower: 74 to 76 °C for the first, 88.2 to 89 °C for the second.

First: CCc1nc(C)cn1CC1CC2c3cccc4[nH]cc(c34)CC2N(C)C1 (centres undefined)
Second: Cc1ccccc1-c1nc2ccccc2[nH]1
The melting point of the first is lower: 172 to 174 °C for the first, 215 °C for the second.

First: CCCCc1nc(SCCCCCC(=O)O)c(C(=O)O)n1Cc1cc2c(cc1Cl)OCO2
Second: CC(=O)N1N=C(c2ccc([N+](=O)[O-])cc2)c2cc3c(cc2CC1C)OCO3 (centres undefined)
The melting point of the first is lower: 128 °C for the first, 140 to 142 °C for the second.

First: O=C1Cc2c(OCc3ccccc3)cc(OCc3ccccc3)cc2O[C@@H]1c1ccc(OCc2ccccc2)c(OCc2ccccc2)c1
Second: Cc1c(CON2C(=O)c3ccccc3C2=O)ncn1C(c1ccccc1)(c1ccccc1)c1ccccc1
The melting point of the first is lower: 144 °C for the first, 220 to 223 °C for the second.

First: O=C(c1ccccc1)c1cccc2c1OCC2C(=O)O (centres undefined)
Second: Nc1cc(C(=O)c2ccccc2)ccc1N1CCCC1
The melting point of the first is higher: 163 to 165 °C for the first, 112 °C for the second.

First: C=CCON=C(C(=O)OCC)c1csc(NC(c2ccccc2)(c2ccccc2)c2ccccc2)n1
Second: O=C(O)C=Cc1ccc(OCCC(c2ccccc2)(c2ccccc2)c2ccccc2)cc1
The melting point of the first is lower: 130 to 132 °C for the first, 207 to 209 °C for the second.

`COC(=O)OCC1OC(n2cc(C)c(=O)[nH]c2=O)CC1OS(C)(=O)=O` (centres undefined) and `CC(=O)Cn1cnc2c1c(=O)[nH]c(=O)n2C` cannot be ordered by melting point: 70 to 72 °C for the first, under 295 °C for the second.

Compared with `Cc1csc2c1-n1cccc1C2=NO`, `CNC(=O)Cn1c(-c2ccc(Br)o2)nc2cccnc21` is lower in melting point: 198 °C for the first, 187 to 191 °C for the second.

Compared with `Cc1oc(-c2ccco2)nc1COc1ccc(COc2nn(-c3ccccc3)cc2C=O)cn1`, `C(=C\c1nc(COc2ccc(CCCCn3ccnc3)cc2)co1)/c1ccccc1` is lower in melting point: 122 to 123 °C for the first, 103 to 104 °C for the second.

Compared with `Cc1ccccc1-c1cc(N2CCS(=O)(=O)CC2)ncc1N(C)C(=O)C(C)(C)c1cc(C(F)(F)F)cc(C(F)(F)F)c1`, `CC(=O)NC(Cc1c[nH]c2ccccc12)C(=O)C=Cc1cc(C(F)(F)F)cc(C(F)(F)F)c1` (centres undefined) is lower in melting point: 200 to 201 °C for the first, 68 to 70 °C for the second.

Compared with `CCOC(=O)c1ccc(NCCCOc2ccccc2)cc1`, `Cc1ccc(OCCOc2cccc(C)c2)cc1` is higher in melting point: 73 to 74 °C for the first, 94 °C for the second.

First: COc1ccc(C(CN(C)C)C2(O)CCCCC2)cc1 (centres undefined)
Second: COc1cc2c(c(OC)c1)C1CCCCC1C(=O)C2 (centres undefined)
The melting point of the first is lower: 78.3 to 79.5 °C for the first, 130 to 131 °C for the second.

Compared with `CCN(CC)CCNC(=O)c1cc(Cl)c(N)cc1OC1CCCCC1=O` (centres undefined), `COc1ccc(C#N)cc1C(=O)NCCN1CCC(C(=O)c2ccc(F)cc2)CC1` is higher in melting point: 96 to 99 °C for the first, 167 to 169 °C for the second.

Compared with `Cc1ccc(Cl)cc1N1CN(Cc2ccccc2)CN(C)C1=S`, `CC(C)(C)OC(=O)N1CCN(c2ccc(N3CCN(Cc4ccccc4)CC3)cc2)CC1` is lower in melting point: 148 to 149 °C for the first, 132 to 133 °C for the second.

Compared with `CCN1c2ncc(COc3ccc(O)cc3)cc2C(=O)N(C)c2ccc(Cl)nc21`, `CC(C)(C)OC(=O)N1CCC(c2ccc(COc3ccc([N+](=O)[O-])cc3)nc2)CC1` is lower in melting point: 199 to 200 °C for the first, 149 to 150 °C for the second.

Going from `C=CC(CC(O)C(CC1CCCCC1)NC(=O)C(Cc1c[nH]cn1)NC(=O)C(Cc1ccccc1)N(C)C(=O)CC(C)(C)C)C(C)C` (centres undefined) to `CCCCNC(=O)Nc1ccc(N(CCC)CCC)cc1C(=O)NCC1CCN(C(c2ccccc2)c2ccccc2)CC1`, the melting point rises from 126 °C to 172 °C.

Compared with `COc1cc(NC(=O)Nc2ccc(C3=CCN(C(=O)Nc4ccc(OCC(O)CO)cc4Cl)CC3)cc2)cc(OC)c1` (centres undefined), `CC(=O)Nc1ccc(-c2cc(C(=O)c3ccccc3)sc2N2CCOCC2)cc1` is higher in melting point: 108 to 111 °C for the first, 165 °C for the second.

First: CSC(=CC(=O)c1cncc(F)c1)SC
Second: CCOC(=O)CC(=O)Nc1ccc(F)cc1
The melting point of the first is higher: 150 to 152 °C for the first, 68 to 71 °C for the second.

First: CCC1(c2ccccc2)Cc2cc(OC)c(Cl)c(Cl)c2C1=O (centres undefined)
Second: COc1ccc(-c2c(Cl)c(CN3CCN(C(C)=O)CC3)nc3sc4c(c23)CCN(Cc2ccccc2)C4)cc1OC
The melting point of the first is lower: 139 to 141 °C for the first, 183 to 184 °C for the second.

First: CCC(=O)c1ccc2cc(O)ccc2c1
Second: Cc1c(-c2ccc(O)cc2O)c(=O)oc2cc(F)ccc12
The melting point of the first is lower: 158 to 159 °C for the first, 266 to 268 °C for the second.

First: Cc1ccn(-c2ccc(C(=O)N3Cc4cccn4Cc4ccccc43)c(Cl)n2)n1
Second: O=C(Nc1ccc(Cl)cc1)c1cccc(/C=C/c2ccccn2)c1
The melting point of the first is lower: 171 to 172 °C for the first, 213 °C for the second.

`Cc1cc(C(=O)N2CCN(c3c(C#N)c(=O)n(Cc4ccc(F)cc4)c4ccccc34)CC2)no1` and `O=C1CCN2CCc3ccccc3C2(c2ccc(F)cc2)C1` (centres undefined) cannot be ordered by melting point: 123 to 135 °C for the first, 128 to 130 °C for the second.

First: CCCCCCCCCCCCCCCCOC(=O)NCCN1CCOCC1
Second: OCCCCOCCCCOCCCCOCCCCOCCCCO
The melting point of the first is higher: 65 °C for the first, 34.5 to 36.5 °C for the second.

Compared with `Cc1ccc(N2CCC(N)=N2)cc1`, `Cc1ccc(C(O)(c2ccc(C)cc2)[C@H](C)n2ccnc2)cc1` is higher in melting point: 142 to 143 °C for the first, 194 to 196 °C for the second.

First: CSc1ccc(Nc2cc(-c3nnc(C)o3)ccn2)cc1
Second: CN(C)c1nnc(-c2ccc3occ(-c4cccc(OC(F)(F)F)c4)c3c2)o1
The melting point of the first is higher: 203 to 204 °C for the first, 105 to 106 °C for the second.

Compared with `CCN(CC)C(=O)c1cc2ccccc2c(-c2ccccc2)n1`, `CCCC1(C(=O)N(C)Cc2ccccc2)c2ccccc2-c2ccccc21` is higher in melting point: 72 °C for the first, 73 to 74 °C for the second.

First: O=C(O)c1ccc(-c2ccnc(-c3cc(-c4ccc(C(=O)O)s4)ccn3)c2)s1
Second: O=C(O)c1cc(C(c2ccccc2)c2ccccc2)ccn1
The melting point of the first is higher: over 300 °C for the first, 172 to 177 °C for the second.

First: COc1ccc2c(c1)c(CC(=O)OCC(=O)O)c(C)n2C(=O)c1cccc(C(F)(F)F)c1
Second: COc1cc(C(F)(F)F)cc(OC)c1C(=O)CCl
The melting point of the first is higher: 136 to 138 °C for the first, 120 to 122 °C for the second.

Compared with `CC(C)(C)OC(=O)CCc1ccnc(-c2nc(=O)c3ccc(Br)cc3s2)c1`, `COc1ccc(C[C@@H](CO)NC(=O)c2ccnc(Br)c2)cc1OC` is lower in melting point: 173 to 174 °C for the first, 151 to 153 °C for the second.

First: Cc1cccc(-c2n[nH]cc2-c2ccc(F)c(-c3cnc(C(C)(C)O)s3)c2)n1
Second: CSc1ccc(C2=NNC(C(=O)OC(C)(C)C)S2)cc1 (centres undefined)
The melting point of the first is higher: 208 to 210 °C for the first, 71 to 72 °C for the second.

First: CC1(C)CCc2c(N3CCCC3)nc3sc4c(NCc5ccccn5)ncnc4c3c2C1
Second: COc1ccc(CNc2cc3c(Nc4ccc5c(cnn5Cc5cccc(F)c5)c4)ncnc3cn2)cc1
The melting point of the first is higher: 212 to 213 °C for the first, 196 to 198 °C for the second.

Compared with `Cc1cccc(P(=O)(O)c2cccc(C)c2)c1`, `O=C1CN(c2cc(Oc3ccccc3)ccc2O)S(=O)(=O)N1` is lower in melting point: 172 °C for the first, 153 to 157 °C for the second.

First: CC(=O)Nc1ccc(Br)c2c1CN(C(C)=O)CC2
Second: C/C(=C\c1ccc(C(=O)O)cc1)c1ccc2c(c1)CCCCC2
The melting point of the first is lower: 127 to 130 °C for the first, 198 °C for the second.

First: Cc1ccc(S(=O)(=O)OCCC2CCN(C(c3ccccc3)(c3ccccc3)c3ccccc3)CC2)cc1
Second: c1ccc(C(OC2CCN(c3ccc4ncnn4n3)CC2)c2ccccc2)cc1
The melting point of the first is higher: 176 °C for the first, 137 to 139 °C for the second.

First: O=[N+]([O-])C=C1SCCCN1S(=O)(=O)Cc1ccccc1
Second: S=P1(c2ccccc2)CCCC1
The melting point of the first is higher: 140 to 141 °C for the first, 74 °C for the second.

Compared with `CS(=O)(=O)Nc1nc2nc(NC3CCOCC3)ncc2cc1Oc1ccc(F)cc1F`, `O=C(Nc1cccnc1)N1CCN(c2cc(-c3cccc(F)c3)ncn2)CC1` is higher in melting point: 199 to 204 °C for the first, 205 to 206 °C for the second.

Compared with `COc1ccc(CN(C)CCOc2ccc(NC(=O)c3cccc4c(=O)c5ccccc5[nH]c34)cc2)cc1OC`, `O=C(Cc1ccccc1)N[C@H](Cc1ccc(C(F)(F)F)cc1)[C@@H](O)c1ccc(F)cc1` (racemic) is higher in melting point: 140 °C for the first, 173 to 174 °C for the second.

First: CCOC1(OCC)OC(C)=C(C(=O)OC)[C@@H](NC(C)=O)[C@@H]1C (relative stereo)
Second: CC(=O)OCC1OC(n2c(Cl)nc3ccc(Br)cc32)C(OC(C)=O)C1OC(C)=O (centres undefined)
The melting point of the first is lower: 87 to 88 °C for the first, 121 to 122 °C for the second.

Compared with `O=C(O)C#Cc1c(Cl)cc(Cl)cc1Cl`, `N#CCNC(=O)c1ccc(Cl)cc1` is higher in melting point: 170 to 175 °C for the first, 185 °C for the second.

First: Cc1cccc(C=CC(=O)O)c1[N+](=O)[O-]
Second: COc1cccnc1CO
The melting point of the first is higher: 230 to 235 °C for the first, 72.5 to 73.5 °C for the second.

First: CN(S(C)(=O)=O)S(=O)(=O)N=C=O
Second: Cc1cc(SC#N)c(C(C)(C)C)cc1NC(=O)OC(C)(C)C
The melting point of the first is higher: 140 °C for the first, 100 to 111 °C for the second.

First: CC(C)(C#N)c1cc(C#N)cc(Cn2ccnc2)c1
Second: CC(=O)OC1CSC(Oc2cccc(-c3ccc(C#N)nc3)c2)C(OC(C)=O)C1OC(C)=O (centres undefined)
The melting point of the first is lower: 89 to 92 °C for the first, 130 °C for the second.

First: CCCNC(=O)CCCCCn1cnc2c(N)nc3ccccc3c21
Second: CN(C)CCCCCCCOc1ccc(-c2nnc(CSCCOc3ccccc3)o2)cc1
The melting point of the first is higher: 128 to 130 °C for the first, 39 to 40 °C for the second.

First: O=C(O)c1ccc(Cl)cc1OCCN1CCC(c2cn(Cc3ccoc3)c3ncccc23)CC1
Second: COc1cc(OC2CCN(c3c(O)c(=O)c3=O)CC2)ccc1CC(=O)N1CCN(c2ccccc2C)CC1C(N)=O (centres undefined)
The melting point of the first is lower: 81.6 to 83.3 °C for the first, 144 to 148 °C for the second.

First: NC1=CCC(c2nc3c(-c4cnn(-c5ccc(F)cc5)c4)cccn3n2)(C2CCNCC2)C=C1 (centres undefined)
Second: COc1cc(NC(N)=S)cc(OC)c1OC
The melting point of the first is higher: 245 to 247 °C for the first, 203 to 205 °C for the second.

Work on `CCCCCCC(CCC(=O)OO)CC(=O)OO` (centres undefined) yielded a melting point of 51.5 to 52.5 °C.
